From ChEMBL document CHEMBL1201862, “PubChem BioAssay data set” (2004)
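Interpolation was linear, between the two tested concentrations surrounding the appropriate level; five concentrations were tested over 48 hours in 96-well plates. GI50 is the concentration that inhibits growth by half.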 Active and inactive are the calls of the source. Cut-off read from the data, not from the text of the source: active = GI50 up to about 1.1 µM and inactive = higher.

Legend:
Experiment in all cases: NCI-60 cell line screen, 48 h
786-0 = tested on: 786-0
A549 = tested on: A549
ACHN = tested on: ACHN
BT-549 = tested on: BT-549
CAKI-1 = tested on: CAKI-1
CCRF-CEM = tested on: CCRF-CEM
COLO 205 = tested on: COLO 205
DU-145 = tested on: DU-145
EKVX = tested on: EKVX
HCT-116 = tested on: HCT-116
HCT-15 = tested on: HCT-15
HL-60 = tested on: HL-60
HOP-62 = tested on: HOP-62
HOP-92 = tested on: HOP-92
HT-29 = tested on: HT-29
Hs-578T = tested on: Hs-578T
IGROV-1 = tested on: IGROV-1
K562 = tested on: K562
KM12 = tested on: KM12
LOX IMVI = tested on: LOX IMVI
M14 = tested on: M14
MCF7 = tested on: MCF7
MDA-MB-231 = tested on: MDA-MB-231
MDA-MB-435 = tested on: MDA-MB-435
MOLT-4 = tested on: MOLT-4
Malme-3M = tested on: Malme-3M
NCI-H226 = tested on: NCI-H226
NCI-H23 = tested on: NCI-H23
NCI-H460 = tested on: NCI-H460
NCI-H522 = tested on: NCI-H522
NCI/ADR-RES = tested on: NCI/ADR-RES
OVCAR-3 = tested on: OVCAR-3
OVCAR-4 = tested on: OVCAR-4
OVCAR-5 = tested on: OVCAR-5
OVCAR-8 = tested on: OVCAR-8
PC-3 = tested on: PC-3
RPMI-8226 = tested on: RPMI-8226
RXF 393 = tested on: RXF 393
SF-268 = tested on: SF-268
SF-295 = tested on: SF-295
SF-539 = tested on: SF-539
SK-MEL-28 = tested on: SK-MEL-28
SK-MEL-2 = tested on: SK-MEL-2
SK-MEL-5 = tested on: SK-MEL-5
SK-OV-3 = tested on: SK-OV-3
SN12C = tested on: SN12C
SNB-19 = tested on: SNB-19
SNB-75 = tested on: SNB-75
SR = tested on: SR
SW-620 = tested on: SW-620
T47D = tested on: T47D
TK-10 = tested on: TK-10
U-251 = tested on: U-251
UACC-257 = tested on: UACC-257
UACC-62 = tested on: UACC-62
UO-31 = tested on: UO-31

`COc1ccc(C(c2cc3c(cc2O)OCO3)N2CCOCC2)cc1OC` (stereo unspecified) was tested, and the GI50 (786-0) was 11.1 µM (inactive), the GI50 (A549) was 22.4 µM (inactive) and the GI50 (ACHN) was 11.4 µM (inactive). For the same molecule, the GI50 (BT-549) was 5.28 µM (inactive), the GI50 (CAKI-1) was 12.8 µM (inactive) and the GI50 (CCRF-CEM) was 0.327 µM (active). For the same molecule, the GI50 (COLO 205) was 15.3 µM (inactive), the GI50 (DU-145) was 12.1 µM (inactive) and the GI50 (EKVX) was 19.1 µM (inactive). The GI50 (HCT-116) was 10.9 µM (inactive), the GI50 (HCT-15) was 3.95 µM and the GI50 (HL-60) was 25.4 µM (inactive). For the same molecule, the GI50 (HOP-62) was 15.7 µM (inactive), the GI50 (HOP-92) was 16 µM (inactive) and the GI50 (HT-29) was 12.9 µM (inactive). The GI50 (Hs-578T) was 2.75 µM (inactive), the GI50 (IGROV-1) was 14.9 µM (inactive) and the GI50 (K562) was 7.6 µM (inactive). The GI50 (KM12) was 12.4 µM (inactive), the GI50 (LOX IMVI) was 4.01 µM (inactive) and the GI50 (M14) was 12.4 µM (inactive). For the same molecule, the GI50 (MCF7) was 12.8 µM (inactive), the GI50 (MDA-MB-231) was 3.5 µM (inactive) and the GI50 (MDA-MB-435) was 11.3 µM (inactive). The GI50 (MOLT-4) was 3.48 µM (inactive), the GI50 (Malme-3M) was 13.1 µM (inactive) and the GI50 (NCI-H226) was 11.1 µM (inactive). For the same molecule, the GI50 (NCI-H23) was 4.15 µM (inactive), the GI50 (NCI-H460) was 22 µM (inactive) and the GI50 (NCI-H522) was 3.28 µM (inactive). For the same molecule, the GI50 (NCI/ADR-RES) was 5.89 µM (inactive), the GI50 (OVCAR-3) was 7.8 µM (inactive) and the GI50 (OVCAR-4) was 15.6 µM (inactive). The GI50 (OVCAR-5) was 9.95 µM (inactive), the GI50 (OVCAR-8) was 5.02 µM (inactive) and the GI50 (PC-3) was 11.1 µM (inactive). For the same molecule, the GI50 (RPMI-8226) was 2.66 µM (inactive), the GI50 (RXF 393) was 18.8 µM (inactive) and the GI50 (SF-268) was 10.9 µM (inactive). The GI50 (SF-295) was 14.2 µM (inactive), the GI50 (SF-539) was 14.6 µM (inactive) and the GI50 (SK-MEL-28) was 17.5 µM (inactive). For the same molecule, the GI50 (SK-MEL-2) was 16.6 µM (inactive), the GI50 (SK-MEL-5) was 13.5 µM (inactive) and the GI50 (SK-OV-3) was 14.1 µM (inactive). For the same molecule, the GI50 (SN12C) was 10.2 µM (inactive), the GI50 (SNB-19) was 16.7 µM (inactive) and the GI50 (SNB-75) was 15.3 µM (inactive). For the same molecule, the GI50 (SR) was 1.89 µM (inactive), the GI50 (SW-620) was 2.72 µM (inactive) and the GI50 (T47D) was 16.9 µM (inactive). For the same molecule, the GI50 (TK-10) was 13.4 µM (inactive), the GI50 (U-251) was 9.64 µM (inactive) and the GI50 (UACC-257) was 15.7 µM (inactive). For the same molecule, the GI50 (UACC-62) was 5.75 µM (inactive) and the GI50 (UO-31) was 11.1 µM (inactive).
